Drawing on patent publication US20220169654A1, “New Organic Compounds” (Servier Pharmaceuticals LLC, priority 2020, published 2022), this text covers IC50 for 18 molecules.

One experiment has as its target T1, MAT2A homodimer (Homo sapiens, UniProt P31153).
T1 construct: inferred from Ni sepharose purification with imidazole elution; made in house; host or cells: Sf9 insect cells, baculovirus (Bac to Bac, pFASTBAC1)
Briefly: MAT2A inhibition (biochemical, liberated phosphate, PiColorLock Gold). The following applies: recombinant MAT2A homodimer; IC50 bin with Max Inh.; read-out: Enzyme Inhibition Bin. Put shortly: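 Enzyme at 4 μg/mL and compound equilibrated 60 min at 25 °C, then 60 min reaction after adding substrate mix (500 μM ATP, 400 μM methionine). Released phosphate quantified by colorimetric kit against a phosphate standard curve to give IC50. Secondary format used 1 μg/mL enzyme with 5 h incubation.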

Another experiment concerns HCT116 MTAP+/+. Nature of the experiment: Inhibition of cellular proliferation, 4 days, Cell Titer Glo, HCT116 MTAP+/+. The class given is cell-based. The following applies: Homo sapiens, HCT-116, 96 h, IC50 bin with Max Inh., read-out: 4 Day Relative Growth Inhibition (MTAP +/+). The method, boiled down:
(§1)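 IC50 derived from blank-corrected ATP luminescence (Cell Titer Glo) expressed relative to within-plate 0.2% DMSO wells. Compound, as a 10-point 3-fold series, was added 24 h after seeding the MTAP+/+ or MTAP−/− HCT116 cells and incubated 4 days at 37° C./5% CO2.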

Experiment [1] concerns SAM in HCT116 human colon carcinoma cell line with MTAP gene deleted (MTAP −/−). Briefly: Cellular assay of target engagement (SAM), LC-MS/MS, 72 hrs. The class given is cell-based. The following applies: HCT-116, IC50 bin with Max Inh., read-out: Cell 72 h SAM Inhibition (MTAP −/−). The method, boiled down:
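SAM levels were quantified by LC-MS/MS (m/z 399.2→250.1, d3-SAM internal standard) from cold methanol/acetic acid extracts, yielding IC50. Compound was applied as a 10-point 3-fold series for 72 hrs to MTAP −/− HCT116 cells seeded 24 hours before.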

The test system of another experiment is HCT116 MTAP−/−. Nature of the experiment: Inhibition of cellular proliferation, 4 days, Cell Titer Glo, HCT116 MTAP−/−. It is filed as cell-based. The following applies: Homo sapiens, HCT-116, 96 h, IC50 bin with Max Inh., read-out: 4 Day Relative Growth Inhibition (MTAP −/−). The method, boiled down:
as §1

T1 sequence (P31153 whole entry): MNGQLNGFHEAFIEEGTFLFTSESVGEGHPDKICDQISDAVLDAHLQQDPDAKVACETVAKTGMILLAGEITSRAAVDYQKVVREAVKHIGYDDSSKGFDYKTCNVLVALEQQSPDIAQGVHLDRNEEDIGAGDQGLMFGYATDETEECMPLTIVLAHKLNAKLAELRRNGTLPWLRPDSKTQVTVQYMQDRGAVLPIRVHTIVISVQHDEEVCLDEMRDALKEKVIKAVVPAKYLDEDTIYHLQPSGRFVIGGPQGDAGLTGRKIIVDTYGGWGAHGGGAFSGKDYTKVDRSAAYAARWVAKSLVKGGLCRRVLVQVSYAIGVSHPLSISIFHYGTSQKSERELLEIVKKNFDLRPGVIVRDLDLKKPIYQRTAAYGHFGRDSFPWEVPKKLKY

With `Cc1ccc(-c2c(=O)n(-c3ccc4nn(C)cc4c3)nc3c(C#N)cn(CCC(F)(F)F)c23)cn1` [Example 108, 2-(2-methyl-2H-indazol-5-yl)-4-(6-methylpyridin-3-yl)-3-oxo-5-(3,3,3-trifluoropropyl)-3,5-dihydro-2H-pyrrolo[3,2-c]pyridazine-7-carbonitrile], the IC50 is 0.1 to 1 µM at MAT2A homodimer, 0.1 to 1 µM in the experiment with HCT116 MTAP+/+, 0.1 to 1 µM in experiment [1] and over 1 µM in the experiment on HCT116 MTAP−/−.
With `Cc1nn(CC2CC2)c2c(-c3ccc(Cl)cc3)c(=O)n(-c3ccc4nn(C)cc4c3)nc12` [Example 215, 7-(4-chlorophenyl)-1-(cyclopropylmethyl)-3-methyl-5-(2-methyl-2H-indazol-5-yl)-1,5-dihydro-6H-pyrazolo[4,3-c]pyridazin-6-one], the IC50 on MAT2A homodimer was under 0.1 µM; with HCT116 MTAP+/+ it was 0.1 to 1 µM; in experiment [1] it was under 0.1 µM; in the experiment on HCT116 MTAP−/−, under 0.1 µM.
`Cn1cc2cc(-n3nc4ccn(CC5CC5)c4c(-c4ccc(C#N)nc4)c3=O)ccc2n1` [Example 153, 5-(5-(cyclopropylmethyl)-2-(2-methyl-2H-indazol-5-yl)-3-oxo-3,5-dihydro-2H-pyrrolo[3,2-c]pyridazin-4-yl)picolinonitrile]: the IC50 was 0.1 to 1 µM on MAT2A homodimer, over 1 µM in the experiment on HCT116 MTAP+/+, 0.1 to 1 µM in experiment [1] and over 1 µM in the experiment with HCT116 MTAP−/−.
For the molecule `Cc1nc2ccc(-n3nc4ccn(CC5CC5)c4c(-c4ccc(C(F)F)nc4)c3=O)cc2n1C` [Example 140, 5-(cyclopropylmethyl)-4-(6-(difluoromethyl)pyridin-3-yl)-2-(1,2-dimethyl-1H-benzo[d]imidazol-6-yl)-2,5-dihydro-3H-pyrrolo[3,2-c]pyridazin-3-one], the IC50 is under 0.1 µM at MAT2A homodimer, 0.1 to 1 µM in the experiment with HCT116 MTAP+/+, under 0.1 µM in experiment [1] and under 0.1 µM in the experiment on HCT116 MTAP−/−.
As to `Cn1cc2cc(-n3nc4c(I)cn(CC5CC5)c4c(-c4ccc(C5CC5)nc4)c3=O)ccc2n1` [Example 117, 5-(cyclopropylmethyl)-4-(6-cyclopropylpyridin-3-yl)-7-iodo-2-(2-methyl-2H-indazol-5-yl)-2,5-dihydro-3H-pyrrolo[3,2-c]pyridazin-3-one], the IC50 at MAT2A homodimer was under 0.1 µM; in the experiment on HCT116 MTAP+/+, over 1 µM; in experiment [1], under 0.1 µM; in the experiment on HCT116 MTAP−/−, under 0.1 µM.
`CC(C)c1ccc(-c2c(=O)n(-c3ccc4nn(C)cc4c3)nc3c(C#N)cn(CC4CC4)c23)cn1` [Example 128, 5-(cyclopropylmethyl)-4-(6-isopropylpyridin-3-yl)-2-(2-methyl-2H-indazol-5-yl)-3-oxo-3,5-dihydro-2H-pyrrolo[3,2-c]pyridazine-7-carbonitrile]: the IC50 at MAT2A homodimer was under 0.1 µM; in the experiment with HCT116 MTAP+/+ it was over 1 µM; in experiment [1], under 0.1 µM; in the experiment with HCT116 MTAP−/−, 0.1 to 1 µM.
`[2H]C([2H])([2H])n1cc2cc(-n3nc4c(C#N)cn(CC5CC5)c4c(-c4ccc(C5CC5)nc4)c3=O)ccc2n1` [Example 270, 5-(cyclopropylmethyl)-4-(6-cyclopropylpyridin-3-yl)-2-(2-(methyl-d3)-2H-indazol-5-yl)-3-oxo-3,5-dihydro-2H-pyrrolo[3,2-c]pyridazine-7-carbonitrile]: the IC50 at MAT2A homodimer was under 0.1 µM; in the experiment with HCT116 MTAP+/+, 0.1 to 1 µM; in experiment [1] it was under 0.1 µM; in the experiment with HCT116 MTAP−/− it was under 0.1 µM.
Turning to `Cc1ccc(-c2c(=O)n(-c3ccc4nc(C)n(C)c4c3)nc3ccn(CC4CC4)c23)cn1` [Example 141, 5-(cyclopropylmethyl)-2-(1,2-dimethyl-1H-benzo[d]imidazol-6-yl)-4-(6-methylpyridin-3-yl)-2,5-dihydro-3H-pyrrolo[3,2-c]pyridazin-3-one], the IC50 on MAT2A homodimer is under 0.1 µM; with HCT116 MTAP+/+, 0.1 to 1 µM; in experiment [1], under 0.1 µM; in the experiment on HCT116 MTAP−/−, under 0.1 µM.
Turning to `[2H]C([2H])([2H])Oc1ccc(-n2nc3ccn(CC4CC4)c3c(-c3ccc(C(F)F)nc3)c2=O)cc1` [Example 132, 5-(cyclopropylmethyl)-4-(6-(difluoromethyl)pyridin-3-yl)-2-(4-(methoxy-d3)phenyl)-2,5-dihydro-3H-pyrrolo[3,2-c]pyridazin-3-one], the IC50 at MAT2A homodimer is under 0.1 µM; in the experiment on HCT116 MTAP+/+, over 1 µM; in experiment [1], 0.1 to 1 µM; with HCT116 MTAP−/−, 0.1 to 1 µM.
In the case of `Cn1cc2cc(-n3nc4c(C(N)=O)cn(CC5CC5)c4c(-c4ccc(C5CC5)cc4)c3=O)ccc2n1` [Example 166, 5-(cyclopropylmethyl)-4-(4-cyclopropylphenyl)-2-(2-methyl-2H-indazol-5-yl)-3-oxo-3,5-dihydro-2H-pyrrolo[3,2-c]pyridazine-7-carboxamide], the IC50 is under 0.1 µM at MAT2A homodimer, over 1 µM with HCT116 MTAP+/+, under 0.1 µM in experiment [1] and under 0.1 µM with HCT116 MTAP−/−.
For the molecule `Cn1nc2ccc(-n3nc4c(C(F)(F)F)cn(CC5CC5)c4c(-c4ccc(C5CC5)nc4)c3=O)cc2c1C(F)(F)F` [Example 242, 5-(cyclopropylmethyl)-4-(6-cyclopropylpyridin-3-yl)-2-(2-methyl-3-(trifluoromethyl)-2H-indazol-5-yl)-7-(trifluoromethyl)-2,5-dihydro-3H-pyrrolo[3,2-c]pyridazin-3-one], the IC50 is under 0.1 µM on MAT2A homodimer, 0.1 to 1 µM in the experiment with HCT116 MTAP+/+, 0.1 to 1 µM in experiment [1] and 0.1 to 1 µM with HCT116 MTAP−/−.
In the case of `Cn1cc2cc(-n3nc4[nH]c(=O)n(CC5CC5)c4c(-c4ccc(C5CC5)nc4)c3=O)ccc2n1` [Example 203, 5-(cyclopropylmethyl)-4-(6-cyclopropylpyridin-3-yl)-2-(2-methyl-2H-indazol-5-yl)-2,7-dihydro-3H-imidazo[4,5-c]pyridazine-3,6(5H)-dione], the IC50 was under 0.1 µM at MAT2A homodimer, 0.1 to 1 µM with HCT116 MTAP+/+, under 0.1 µM in experiment [1] and under 0.1 µM in the experiment with HCT116 MTAP−/−.
On to `Cn1cc2cc(-n3nc4c(S(N)(=O)=O)cn(CC5CC5)c4c(-c4ccc(OC(F)F)cc4)c3=O)ccc2n1` [Example 184, 5-(cyclopropylmethyl)-4-(4-(difluoromethoxy)phenyl)-2-(2-methyl-2H-indazol-5-yl)-3-oxo-3,5-dihydro-2H-pyrrolo[3,2-c]pyridazine-7-sulfonamide], for which the IC50 on MAT2A homodimer is under 0.1 µM; with HCT116 MTAP+/+, over 1 µM; in experiment [1], under 0.1 µM; in the experiment on HCT116 MTAP−/− it was 0.1 to 1 µM.
As to `Cc1nc2ccc(-n3nc4ccn(CC5CC5)c4c(-c4ccc(C5CC5)nc4)c3=O)cc2n1C` [Example 156, 5-(cyclopropylmethyl)-4-(6-cyclopropylpyridin-3-yl)-2-(1,2-dimethyl-1H-benzo[d]imidazol-6-yl)-2,5-dihydro-3H-pyrrolo[3,2-c]pyridazin-3-one], the IC50 (on MAT2A homodimer; in the experiment on HCT116 MTAP+/+; in experiment [1]; in the experiment with HCT116 MTAP−/−) was under 0.1 µM throughout.
For `Cn1cc2cc(-n3nc4c(C#N)c(Cl)n(CC5CC5)c4c(-c4ccc(C5CC5)nc4)c3=O)ccc2n1` [Example 251, 6-chloro-5-(cyclopropylmethyl)-4-(6-cyclopropylpyridin-3-yl)-2-(2-methyl-2H-indazol-5-yl)-3-oxo-3,5-dihydro-2H-pyrrolo[3,2-c]pyridazine-7-carbonitrile], the IC50 at MAT2A homodimer is under 0.1 µM; in the experiment on HCT116 MTAP+/+, 0.1 to 1 µM; in experiment [1] it was under 0.1 µM; in the experiment with HCT116 MTAP−/− it was under 0.1 µM.
With `Cn1cc2cc(-n3nc4ccn(CC5CC5)c4c(-c4ccc(C5CC5)cc4)c3=O)ccc2n1` [Example 150, 5-(cyclopropylmethyl)-4-(4-cyclopropylphenyl)-2-(2-methyl-2H-indazol-5-yl)-2,5-dihydro-3H-pyrrolo[3,2-c]pyridazin-3-one], the IC50 on MAT2A homodimer was under 0.1 µM; in the experiment on HCT116 MTAP+/+ it was over 1 µM; in experiment [1], under 0.1 µM; with HCT116 MTAP−/−, under 0.1 µM.
On to `Cn1cc2cc(-n3nc4c(S(N)(=O)=O)cn(CC5CC5)c4c(-c4ccc(C5CC5)cc4)c3=O)ccc2n1` [Example 180, 5-(cyclopropylmethyl)-4-(4-cyclopropylphenyl)-2-(2-methyl-2H-indazol-5-yl)-3-oxo-3,5-dihydro-2H-pyrrolo[3,2-c]pyridazine-7-sulfonamide], for which the IC50 on MAT2A homodimer is under 0.1 µM; in the experiment with HCT116 MTAP+/+ it was over 1 µM; in experiment [1] it was under 0.1 µM; in the experiment on HCT116 MTAP−/−, under 0.1 µM.
As for `Cn1cc2cc(-n3nc4c(C#N)cn(CC(F)(F)F)c4c(-c4ccc(C5CC5)nc4)c3=O)ccc2n1` [Example 133, 4-(6-cyclopropylpyridin-3-yl)-2-(2-methyl-2H-indazol-5-yl)-3-oxo-5-(2,2,2-trifluoroethyl)-3,5-dihydro-2H-pyrrolo[3,2-c]pyridazine-7-carbonitrile], the IC50 on MAT2A homodimer is under 0.1 µM; in the experiment with HCT116 MTAP+/+, over 1 µM; in experiment [1], 0.1 to 1 µM; in the experiment on HCT116 MTAP−/−, 0.1 to 1 µM.
